We go through one compound from BindingDB's records for doi:10.1021/jm00020a011 (Zeneca Pharmaceuticals, 1995).

This assay in a line: Binding affinity towards Acetylcholinesterase.

By Ki is commonly meant the equilibrium dissociation constant of an inhibitor or competing ligand from its target. Lower therefore signals a stronger hold on the target.

For the compound `CC(C)[C@H](NC(=O)[C@@H]1CCCN1C(=O)[C@@H](NC(=O)c1ccc(C(=O)NS(=O)(=O)c2ccc(Cl)cc2)cc1)C(C)C)C(=O)c1nc2cc(C(N)=O)ccc2o1` [2-{(S)-2-[((S)-1-{(S)-2-[4-(4-Chloro-benzenesulfonylaminocarbonyl)-benzoylamino]-3-methyl-butyryl}-pyrrolidine-2-carbonyl)-amino]-3-methyl-butyryl}-benzooxazole-5-carboxylic acid amide], the Ki is above 2000 µM.
